pIC50: −log10 of the molar value.
Tests used:
[1] = molecular target: T1, human GluN1/GluN2B NMDA receptors (Homo sapiens, UniProt Q13224); assay: Calcium flux (FLIPR) assay on cloned human NR1/GluN2B ion channels expressed in mammalian cells (standard and HTS variants); type: cell-based; settings: cells expressing human GluN1/GluN2B, glutamate and glycine co-agonists
T1 construct: expressed in transfected cells
Summary of the method: (§1)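 Tet-On-induced stable cell line loaded with Calcium 5 dye; compounds applied 5 min (agonist check), then glutamate at ~EC40 plus 10 μM glycine for 5 min. Buffer pH 7.4 with 0.5 mM MgCl2 in dye loading (standard) or 1.5 mM (HTS). FLIPR fluorescence normalized to control wells; (+)MK-801 as antagonist control.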

[2] = Liver microsomal stability (extraction ratio); type: in vitro ADME, mouse, rat, and human; settings: test compound 1 μM, 0.5 mg/mL liver microsomes, NADPH 1 mM, 37° C.; ER = predicted hepatic clearance / species blood flow; species not given
Experimental: Protocol for Liver Microsomal Stability (Extraction Ratio)
Liver Microsomal Stability. Microsomal stability studies (Chrovian et al, “1H-Pyrrolo[3,2-b]pyridine GluN2B-Selective Negative Allosteric Modulators”. ACS Med Chem Lett. 2019 Jan. 10; 10(3):261-266) were conducted on a Biomek® FX Robotic Liquid Handling Workstation (Beckman Coulter, Brea, Calif.), which consists of a 96-channel pipette head, a 12-postion workstation deck, and a plate incubator. Test compounds (1 μm) were spiked in a reaction mix consisting of 100 mM potassium phosphate buffer (pH 7.4), 3 mM MgCl2, and 0.5 mg/mL liver microsomes from mouse, rat, and human (BD Gentest). The reaction was brought to 37° C. and initiated by adding NADPH to a final concentration of 1 mM. After mixing on the platedeck, 50 µL aliquots were excised from the reaction plate at 0, 5, 10, 20, 40, and 60 min and quenched with four volumes of acetonitrile spiked with […] of the internal standard phenytoin. Quenched plates were centrifuged at 5700 rpm for 10 min at 4° C., and supernatant was diluted 1:3 in water before LC/MS/MS analysis. The compound half-lives were derived from plots of the ln of percent remaining compound over time to determine the intrinsic clearance. The predicted hepatic clearance was derived from the intrinsic clearance value using equations from the well-stirred model (Current Drug Metabolism, 2008, 9, 940-951), where no correction was made plasma protein binding and the blood to plasma concentration ratio was assumed to be one.

[3] = molecular target: T2, human GluN1/GluN2B NMDA receptors (Homo sapiens, UniProt Q05586+Q13224); assay: Calcium flux (FLIPR) assay on cloned human NR1/GluN2B ion channels expressed in mammalian cells (standard and HTS variants); type: cell-based; settings: cells expressing human GluN1/GluN2B, glutamate and glycine co-agonists
T2 construct: expressed in transfected cells
T2 sequence (Q13224 27-1484, other chains not shown): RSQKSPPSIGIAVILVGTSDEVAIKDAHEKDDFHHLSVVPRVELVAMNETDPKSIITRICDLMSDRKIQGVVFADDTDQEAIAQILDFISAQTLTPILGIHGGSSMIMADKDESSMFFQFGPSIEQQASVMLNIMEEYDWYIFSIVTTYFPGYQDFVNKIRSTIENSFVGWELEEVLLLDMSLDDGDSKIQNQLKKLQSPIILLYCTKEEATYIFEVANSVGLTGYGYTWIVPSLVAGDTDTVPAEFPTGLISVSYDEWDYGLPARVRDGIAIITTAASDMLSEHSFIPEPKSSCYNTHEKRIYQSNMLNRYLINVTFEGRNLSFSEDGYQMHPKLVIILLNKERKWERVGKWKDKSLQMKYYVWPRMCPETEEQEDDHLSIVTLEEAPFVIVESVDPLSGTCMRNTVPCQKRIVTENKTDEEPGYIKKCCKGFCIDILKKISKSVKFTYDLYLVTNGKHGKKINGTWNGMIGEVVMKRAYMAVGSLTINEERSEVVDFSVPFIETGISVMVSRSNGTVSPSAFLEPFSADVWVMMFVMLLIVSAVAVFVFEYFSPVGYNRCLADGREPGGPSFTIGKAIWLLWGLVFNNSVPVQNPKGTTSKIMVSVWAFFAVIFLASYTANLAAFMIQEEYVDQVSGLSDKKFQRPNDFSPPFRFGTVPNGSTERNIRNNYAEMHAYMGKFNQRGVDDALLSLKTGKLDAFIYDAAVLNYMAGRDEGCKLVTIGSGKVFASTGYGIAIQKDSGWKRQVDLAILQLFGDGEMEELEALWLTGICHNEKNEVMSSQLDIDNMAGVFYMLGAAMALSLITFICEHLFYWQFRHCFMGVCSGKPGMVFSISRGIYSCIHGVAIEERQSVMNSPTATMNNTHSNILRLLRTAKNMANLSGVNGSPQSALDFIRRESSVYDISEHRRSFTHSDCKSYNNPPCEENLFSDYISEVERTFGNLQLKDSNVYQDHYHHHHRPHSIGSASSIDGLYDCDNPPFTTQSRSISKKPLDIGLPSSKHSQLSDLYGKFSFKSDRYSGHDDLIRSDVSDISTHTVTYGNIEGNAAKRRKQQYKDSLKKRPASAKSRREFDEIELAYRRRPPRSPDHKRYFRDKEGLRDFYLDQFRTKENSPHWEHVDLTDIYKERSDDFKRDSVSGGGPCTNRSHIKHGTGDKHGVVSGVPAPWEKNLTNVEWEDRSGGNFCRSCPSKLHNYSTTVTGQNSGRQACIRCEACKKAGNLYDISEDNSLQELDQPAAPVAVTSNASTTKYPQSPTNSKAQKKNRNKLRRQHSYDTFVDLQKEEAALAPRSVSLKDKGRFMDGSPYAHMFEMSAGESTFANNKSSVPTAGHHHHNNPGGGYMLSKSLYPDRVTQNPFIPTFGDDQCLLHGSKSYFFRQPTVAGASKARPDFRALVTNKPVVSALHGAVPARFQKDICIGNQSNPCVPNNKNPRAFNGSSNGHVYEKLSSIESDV
Summary of the method: as §1

T1 sequence (Q13224 27-1484, other chains not shown): as above

Compound | pIC50 [1] | Extraction Ratio @ 1 μM [2] | pIC50 [3]
CC(F)(F)c1cccc(-c2cnc3cnn(Cc4cccnc4)c3c2)c1 [Example 12, 6-[3-(1,1-Difluoroethyl)phenyl]-1-(3-pyridylmethyl)pyrazolo[4,3-b]pyridine] |  |  | 7.59
Cc1cc(Cn2ncc3ncc(-c4ccc(F)c(C(F)F)c4)cc32)on1 [Example 52, 5-[[6-[3-(Difluoromethyl)-4-fluoro-phenyl]pyrazolo[4,3-b]pyridin-1-yl]methyl]-3-methyl-isoxazole] | 7.66 | 0.69 | 
Cc1nnc(Cn2nc(F)c3ncc(-c4ccc(F)c(C(F)F)c4)cc32)o1 [Example 96, 2-[[6-[3-(Difluoromethyl)-4-fluoro-phenyl]-3-fluoro-pyrazolo[4,3-b]pyridin-1-yl]methyl]-5-methyl-1,3,4-oxadiazole] | 7.42 | <0.298 | 
CC(F)(F)c1cc(-c2cnc3cnn(Cc4cn[nH]c4)c3c2)ccc1F [Example 40, 6-[3-(1,1-Difluoroethyl)-4-fluoro-phenyl]-1-(1H-pyrazol-4-ylmethyl)pyrazolo[4,3-b]pyridine] |  |  | 6.08
Cc1nnc(Cn2ncc3ncc(-c4ccc(F)c(C(F)F)c4)cc32)o1 [Example 10, 2-[[6-[3-(Difluoromethyl)-4-fluoro-phenyl]pyrazolo[4,3-b]pyridin-1-yl]methyl]-5-methyl-1,3,4-oxadiazole] | 7.72 | 0.31 | 
Cc1nc(Cn2ncc3ncc(-c4ccc(F)c(C(F)F)c4)cc32)no1 [Example 97, 3-[[6-[3-(Difluoromethyl)-4-fluoro-phenyl]pyrazolo[4,3-b]pyridin-1-yl]methyl]-5-methyl-1,2,4-oxadiazole] | 7.39 | 0.42 | 
Cc1nnc(Cn2ncc3ncc(-c4ccc(F)c(C(F)F)c4)cc32)s1 [Example 122, 2-[[6-[3-(Difluoromethyl)-4-fluoro-phenyl]pyrazolo[4,3-b]pyridin-1-yl]methyl]-5-methyl-1,3,4-thiadiazole] | 7.74 | 0.60 | 
[2H]c1nn(Cc2nnc(C)o2)c2cc(-c3ccc(F)c(C(F)F)c3)cnc12 [compound 297, 2-[[3-Deuterio-6-[3-(difluoromethyl)-4-fluoro-phenyl]pyrazolo [4,3-b]pyridin-1-yl]methyl]-5-methyl-1,3,4-oxadiazole] |  |  | 7.62
Cc1cnc(Cn2ncc3ncc(-c4ccc(F)c(C(F)F)c4)cc32)o1 [Example 8, 2-[[6-[3-(Difluoromethyl)-4-fluoro-phenyl]pyrazolo[4,3-b]pyridin-1-yl]methyl]-5-methyl-oxazole] | 7.55 | 0.68 | 

The remaining lines, values ahead:

pIC50 [1] | Extraction Ratio @ 1 μM [2] | pIC50 [3] | Compound
7.85 | 0.57 |  | Fc1cncc(Cn2ncc3ncc(-c4ccc(F)c(C(F)F)c4)cc32)c1 [Example 202, 6-[3-(Difluoromethyl)-4-fluoro-phenyl]-1-[(5-fluoro-3-pyridyl)methyl]pyrazolo[4,3-b]pyridine]
7.64 | <0.298 |  | Fc1ccc(-c2cnc3cnn(Cc4cccnn4)c3c2)cc1C(F)F [Example 261, 6-[3-(Difluoromethyl)-4-fluoro-phenyl]-1-(pyridazin-3-ylmethyl)pyrazolo[4,3-b]pyridine]
7.92 | 0.36 |  | Fc1ccc(-c2cnc3cnn(Cc4cncnc4)c3c2)cc1C(F)F [Example 275, 6-[3-(Difluoromethyl)-4-fluoro-phenyl]-1-(pyrimidin-5-ylmethyl)pyrazolo[4,3-b]pyridine]
8.10 | 0.65 |  | Fc1ccc(-c2cnc3cnn(Cc4cccnc4)c3c2)cc1C(F)F [Example 198, 6-[3-(Difluoromethyl)-4-fluoro-phenyl]-1-(3-pyridylmethyl)pyrazolo[4,3-b]pyridine]
 |  | 5.88 | COc1nnc(Cn2ncc3ncc(-c4ccc(F)c(OC(F)F)c4)cc32)s1 [Example 134, 2-[[6-[3-(difluoromethoxy)-4-fluoro-phenyl]pyrazolo[4,3-b]pyridin-1-yl]methyl]-5-methoxy-1,3,4-thiadiazole]
6.66 |  |  | COc1cncc(Cn2ncc3ncc(-c4ccc(Cl)c(Cl)c4)cc32)c1 [Example 215, 6-(3,4-Dichlorophenyl)-1-[(5-methoxy-3-pyridyl)methyl]pyrazolo[4,3-b]pyridine]
6.39 |  |  | COc1cncc(Cn2ncc3ncc(-c4ccc(F)cc4)cc32)c1 [Example 150, 6-(4-Fluorophenyl)-1-[(5-methoxy-3-pyridyl)methyl]pyrazolo[4,3-b]pyridine]
7.77 |  |  | Fc1ccc(-c2cnc3cnn(Cc4nnc(C(F)F)s4)c3c2)cc1C(F)F [Example 129, 2-(Difluoromethyl)-5-[[6-[3-(difluoromethyl)-4-fluoro-phenyl]pyrazolo[4,3-b]pyridin-1-yl]methyl]-1,3,4-thiadiazole]
